Test results: patent US9302999B2, “Substituted triazoles as herbicides” (E. I. DU PONT DE NEMOURS AND COMPANY, priority 2012, dated 2016)

Experiments:
Type in all cases: in vivo
[1] = tested on: waterhemp (common waterhemp, Amaranthus rudis); experiment: Test F pre-/postemergence: waterhemp
Source text: (§1) Seeds of plant species selected from corn (Zea mays), soybean (Glycine max), velvetleaf (Abutilon theophrasti), lambsquarters (Chenopodium album), poinsettia, wild (wild poinsettia, Euphorbia heterophylla), pigweed, palmer (palmer pigweed, Amaranthus palmeri), waterhemp (common waterhemp, Amaranthus rudis), surinam grass (Brachiaria decumbens), crabgrass, Brazil (Brazilian crabgrass, Digitaria horizontalis), panicum, fall (fall panicum Panicum dichotomiflorum), crabgrass, large (large crabgrass, Digitaria sanguinalis), foxtail, giant (giant foxtail, Setaria faberii), foxtail, green (green foxtail Setaria viridis), goosegrass (Eleusine indica), ragweed (common ragweed, Ambrosia elatior), barnyardgrass (Echinochloa crus-galli), sandbur (southern sandbur, Cenchrus echinatus), arrowleaf sida (Sida rhombifolia), ryegrass, Italian (Italian ryegrass, Lolium multiflorum), dayflower, VA (Virginia (VA) dayflower, Commelina virginica), field bindweed (Convolvulus arvensis), cocklebur (common cocklebur, Xanthium strumarium), morningglory (Ipomoea coccinea), nightshade (eastern black nightshade, Solanum ptycanthum), kochia (Kochia scoparia), nutsedge, yellow (yellow nutsedge, Cyperus esculentus), johnsongrass (Sorghum halepense), smartweed (ladysthumb smartweed, Polygonum persicaria), and beggarticks (hairy beggarticks, Bidens pilosa), were planted into a silt loam soil and treated preemergence with test chemicals formulated in a non-phytotoxic solvent mixture which included a surfactant. At the same time, plants selected from these crop and weed species and also pigweed (Amaranthus retroflexus), waterhemp_RES1 (ALS/Triazine resistant common waterhemp, Amaranthus rudis) and waterhemp_RES2 (ALS/HPPD resistant common waterhemp, Amaranthus rudis) were planted in pots containing a planting medium comprising spaghnum peat moss, vermiculite, wetting agent and starter nutrients treated with postemergence applications of some of the test chemicals formulated in the same manner. Plants ranged in height from 2 to 18 cm for postemergence treatments (1- to 4-leaf stage).
(§2) Treated plants and controls were maintained in a greenhouse for 14 to 21 days, after which time all species were compared to controls and visually evaluated. Plant response ratings, summarized in Table E, are based on a scale of 0 to 100 where 0 is no effect and 100 is complete control. A dash (-) response means no test result.

[2] = tested on: surinam grass (Brachiaria decumbens); experiment: Test F pre-/postemergence: surinam grass; details: Preemergence
Source text: as §1, §2

[3] = tested on: panicum, fall (fall panicum Panicum dichotomiflorum); experiment: Test F pre-/postemergence: panicum, fall
Source text: as §1, §2

[4] = tested on: lambsquarters (Chenopodium album); experiment: Test F pre-/postemergence: lambsquarters; details: Preemergence
Source text: as §1, §2

[5] = tested on: corn (Zea mays); experiment: Test F pre-/postemergence: corn
Source text: as §1, §2

[6] = tested on: johnsongrass (Sorghum halepense); experiment: Test F pre-/postemergence: johnsongrass; details: Preemergence
Source text: as §1, §2

[7] = Preemergence, 16 g ai/ha, scale 0 to 100, 0 no effect, 100 complete control
[8] = Preemergence, 31 g ai/ha, scale 0 to 100, 0 no effect, 100 complete control
[9] = Preemergence, 125 g ai/ha, scale 0 to 100
[10] = Preemergence, 250 g ai/ha, scale 0 to 100
[11] = 16 g ai/ha, scale 0 to 100, 0 no effect, 100 complete control
[12] = 31 g ai/ha, scale 0 to 100, 0 no effect, 100 complete control
[13] = Preemergence, 62 g ai/ha, scale 0 to 100
[14] = Postemergence, 8 g ai/ha, scale 0 to 100
[15] = Postemergence, 16 g ai/ha, scale 0 to 100
[16] = Postemergence, 31 g ai/ha, scale 0 to 100
[17] = Postemergence, 62 g ai/ha, scale 0 to 100
[18] = Postemergence, 125 g ai/ha, scale 0 to 100
[19] = Postemergence, 250 g ai/ha, scale 0 to 100

COc1nn(-c2cccc(F)c2)nc1Cc1ccnc(C(F)(F)F)c1 [Compound 139]
Plant response rating, Waterhemp [1, 7]: 70 | Plant response rating, Waterhemp [1, 8]: 100 | Plant response rating, Waterhemp [1, 9]: 100 | Plant response rating, Waterhemp [1, 10]: 100 | Plant response rating, Surinam Grass [2, 11]: 0 | Plant response rating, Surinam Grass [2, 12]: 0 | Plant response rating, Surinam Grass ([2]; 125 g ai/ha, scale 0 to 100): 75 | Plant response rating, Surinam Grass ([2]; 250 g ai/ha, scale 0 to 100): 75 | Plant response rating, Panicum, Fall [3, 7]: 0 | Plant response rating, Panicum, Fall [3, 8]: 25 | Plant response rating, Panicum, Fall [3, 9]: 100 | Plant response rating, Panicum, Fall [3, 10]: 100 | Plant response rating, Lambsquarters [4, 11]: 0 | Plant response rating, Lambsquarters [4, 12]: 20 | Plant response rating, Lambsquarters ([4]; 62 g ai/ha, scale 0 to 100): 65 | Plant response rating, Lambsquarters ([4]; 125 g ai/ha, scale 0 to 100): 90 | Plant response rating, Lambsquarters ([4]; 250 g ai/ha, scale 0 to 100): 98 | Plant response rating, Corn [5, 7]: 0 | Plant response rating, Corn [5, 8]: 0 | Plant response rating, Corn [5, 13]: 0 | Plant response rating, Corn [5, 9]: 0 | Plant response rating, Corn [5, 10]: 5 | Plant response rating, Johnsongrass [6, 11]: 0 | Plant response rating, Johnsongrass [6, 12]: 75 | Plant response rating, Johnsongrass ([6]; 62 g ai/ha, scale 0 to 100): 90 | Plant response rating, Johnsongrass ([6]; 125 g ai/ha, scale 0 to 100): 98 | Plant response rating, Johnsongrass ([6]; 250 g ai/ha, scale 0 to 100): 100

Cc1nn(-c2ccnc(Cl)c2)nc1Cc1ccnc(C(F)(F)F)c1 [Compound 141]
Plant response rating, Panicum, Fall [3, 14]: 30 | Plant response rating, Panicum, Fall [3, 15]: 50 | Plant response rating, Panicum, Fall [3, 16]: 50 | Plant response rating, Panicum, Fall [3, 17]: 60 | Plant response rating, Panicum, Fall [3, 18]: 75 | Plant response rating, Corn [5, 14]: 15 | Plant response rating, Corn [5, 15]: 15 | Plant response rating, Corn [5, 16]: 20 | Plant response rating, Corn [5, 17]: 20 | Plant response rating, Corn [5, 18]: 30

Cc1nn(-c2ccc(F)cc2F)nc1Oc1ccnc(C(F)(F)F)c1 [Compound 146]
Plant response rating, Waterhemp [1, 7]: 25 | Plant response rating, Waterhemp [1, 8]: 75 | Plant response rating, Waterhemp [1, 9]: 100 | Plant response rating, Waterhemp [1, 10]: 100 | Plant response rating, Surinam Grass [2, 11]: 0 | Plant response rating, Surinam Grass [2, 12]: 0 | Plant response rating, Surinam Grass ([2]; 125 g ai/ha, scale 0 to 100): 20 | Plant response rating, Surinam Grass ([2]; 250 g ai/ha, scale 0 to 100): 35 | Plant response rating, Panicum, Fall [3, 7]: 0 | Plant response rating, Panicum, Fall [3, 8]: 5 | Plant response rating, Panicum, Fall [3, 9]: 100 | Plant response rating, Panicum, Fall [3, 10]: 100 | Plant response rating, Lambsquarters [4, 11]: 0 | Plant response rating, Lambsquarters [4, 12]: 0 | Plant response rating, Lambsquarters ([4]; 62 g ai/ha, scale 0 to 100): 40 | Plant response rating, Lambsquarters ([4]; 125 g ai/ha, scale 0 to 100): 98 | Plant response rating, Lambsquarters ([4]; 250 g ai/ha, scale 0 to 100): 98 | Plant response rating, Corn [5, 7]: 0 | Plant response rating, Corn [5, 8]: 0 | Plant response rating, Corn [5, 13]: 0 | Plant response rating, Corn [5, 9]: 0 | Plant response rating, Corn [5, 10]: 0 | Plant response rating, Johnsongrass [6, 11]: 0 | Plant response rating, Johnsongrass [6, 12]: 50 | Plant response rating, Johnsongrass ([6]; 62 g ai/ha, scale 0 to 100): 60 | Plant response rating, Johnsongrass ([6]; 125 g ai/ha, scale 0 to 100): 70 | Plant response rating, Johnsongrass ([6]; 250 g ai/ha, scale 0 to 100): 100

CCc1nn(-c2ccc(F)cc2)nc1Cc1ccnc(C(F)(F)F)c1 [Compound 154]
Plant response rating, Waterhemp [1, 7]: 50 | Plant response rating, Waterhemp [1, 8]: 60 | Plant response rating, Waterhemp [1, 9]: 100 | Plant response rating, Waterhemp [1, 10]: 100 | Plant response rating, Surinam Grass [2, 11]: 0 | Plant response rating, Surinam Grass [2, 12]: 10 | Plant response rating, Surinam Grass ([2]; 125 g ai/ha, scale 0 to 100): 70 | Plant response rating, Surinam Grass ([2]; 250 g ai/ha, scale 0 to 100): 90 | Plant response rating, Panicum, Fall [3, 7]: 15 | Plant response rating, Panicum, Fall [3, 8]: 90 | Plant response rating, Panicum, Fall [3, 9]: 100 | Plant response rating, Panicum, Fall [3, 10]: 100 | Plant response rating, Lambsquarters [4, 11]: 0 | Plant response rating, Lambsquarters [4, 12]: 30 | Plant response rating, Lambsquarters ([4]; 62 g ai/ha, scale 0 to 100): 75 | Plant response rating, Lambsquarters ([4]; 125 g ai/ha, scale 0 to 100): 98 | Plant response rating, Lambsquarters ([4]; 250 g ai/ha, scale 0 to 100): 98 | Plant response rating, Corn [5, 7]: 0 | Plant response rating, Corn [5, 8]: 0 | Plant response rating, Corn [5, 13]: 0 | Plant response rating, Corn [5, 9]: 5 | Plant response rating, Corn [5, 10]: 5 | Plant response rating, Johnsongrass [6, 11]: 0 | Plant response rating, Johnsongrass [6, 12]: 20 | Plant response rating, Johnsongrass ([6]; 62 g ai/ha, scale 0 to 100): 25 | Plant response rating, Johnsongrass ([6]; 125 g ai/ha, scale 0 to 100): 50 | Plant response rating, Johnsongrass ([6]; 250 g ai/ha, scale 0 to 100): 98

CCc1nn(-c2ccc(C(F)(F)F)cc2)nc1Oc1ccnc(C(F)(F)F)c1 [Compound 169]
Plant response rating, Waterhemp [1, 19]: 100 | Plant response rating, Waterhemp [1, 15]: 75 | Plant response rating, Waterhemp [1, 16]: 90 | Plant response rating, Waterhemp [1, 17]: 90 | Plant response rating, Waterhemp [1, 18]: 100 | Plant response rating, Waterhemp [1, 7]: 60 | Plant response rating, Waterhemp [1, 8]: 80 | Plant response rating, Waterhemp [1, 9]: 100 | Plant response rating, Waterhemp [1, 10]: 100 | Plant response rating, Surinam Grass [2, 11]: 0 | Plant response rating, Surinam Grass [2, 12]: 65 | Plant response rating, Surinam Grass ([2]; 125 g ai/ha, scale 0 to 100): 75 | Plant response rating, Surinam Grass ([2]; 250 g ai/ha, scale 0 to 100): 100 | Plant response rating, Panicum, Fall [3, 19]: 30 | Plant response rating, Panicum, Fall [3, 15]: 10 | Plant response rating, Panicum, Fall [3, 16]: 15 | Plant response rating, Panicum, Fall [3, 17]: 20 | Plant response rating, Panicum, Fall [3, 18]: 25 | Plant response rating, Panicum, Fall [3, 7]: 65 | Plant response rating, Panicum, Fall [3, 8]: 100 | Plant response rating, Panicum, Fall [3, 9]: 100 | Plant response rating, Panicum, Fall [3, 10]: 100 | Plant response rating, Lambsquarters [4, 11]: 0 | Plant response rating, Lambsquarters [4, 12]: 30 | Plant response rating, Lambsquarters ([4]; 62 g ai/ha, scale 0 to 100): 98 | Plant response rating, Lambsquarters ([4]; 125 g ai/ha, scale 0 to 100): 98 | Plant response rating, Lambsquarters ([4]; 250 g ai/ha, scale 0 to 100): 100 | Plant response rating, Corn [5, 19]: 10 | Plant response rating, Corn [5, 15]: 5 | Plant response rating, Corn [5, 16]: 5 | Plant response rating, Corn [5, 17]: 10 | Plant response rating, Corn [5, 18]: 10 | Plant response rating, Corn [5, 7]: 0 | Plant response rating, Corn [5, 8]: 0 | Plant response rating, Corn [5, 13]: 0 | Plant response rating, Corn [5, 9]: 0 | Plant response rating, Corn [5, 10]: 0 | Plant response rating, Johnsongrass [6, 11]: 0 | Plant response rating, Johnsongrass [6, 12]: 0 | Plant response rating, Johnsongrass ([6]; 62 g ai/ha, scale 0 to 100): 20 | Plant response rating, Johnsongrass ([6]; 125 g ai/ha, scale 0 to 100): 50 | Plant response rating, Johnsongrass ([6]; 250 g ai/ha, scale 0 to 100): 80

CCc1nn(-c2ccc(F)c(F)c2)nc1Oc1ccnc(C(F)(F)F)c1 [Compound 171]
Plant response rating, Waterhemp [1, 7]: 0 | Plant response rating, Waterhemp [1, 8]: 95 | Plant response rating, Waterhemp [1, 9]: 100 | Plant response rating, Waterhemp [1, 10]: 100 | Plant response rating, Surinam Grass [2, 11]: 0 | Plant response rating, Surinam Grass [2, 12]: 0 | Plant response rating, Surinam Grass ([2]; 125 g ai/ha, scale 0 to 100): 10 | Plant response rating, Surinam Grass ([2]; 250 g ai/ha, scale 0 to 100): 30 | Plant response rating, Panicum, Fall [3, 7]: 0 | Plant response rating, Panicum, Fall [3, 8]: 65 | Plant response rating, Panicum, Fall [3, 9]: 100 | Plant response rating, Panicum, Fall [3, 10]: 100 | Plant response rating, Lambsquarters [4, 11]: 0 | Plant response rating, Lambsquarters [4, 12]: 0 | Plant response rating, Lambsquarters ([4]; 62 g ai/ha, scale 0 to 100): 35 | Plant response rating, Lambsquarters ([4]; 125 g ai/ha, scale 0 to 100): 65 | Plant response rating, Lambsquarters ([4]; 250 g ai/ha, scale 0 to 100): 98 | Plant response rating, Corn [5, 7]: 0 | Plant response rating, Corn [5, 8]: 0 | Plant response rating, Corn [5, 13]: 0 | Plant response rating, Corn [5, 9]: 0 | Plant response rating, Corn [5, 10]: 5 | Plant response rating, Johnsongrass [6, 11]: 0 | Plant response rating, Johnsongrass [6, 12]: 0 | Plant response rating, Johnsongrass ([6]; 62 g ai/ha, scale 0 to 100): 10 | Plant response rating, Johnsongrass ([6]; 125 g ai/ha, scale 0 to 100): 65 | Plant response rating, Johnsongrass ([6]; 250 g ai/ha, scale 0 to 100): 75
